# What was measured:
# Format in all cases: binding
# [1] = target: T1, CCR2 (Homo sapiens, UniProt P41597); assay: NanoBRET screen HiBiT-CCR2 in HEK293
# T1 construct: purchased Promega (in-house HiBiT-GPCR construct library, NanoBRET)
# Method: (§1) Each tracer candidate was screened across the entire library of HiBiT-GPCR constructs using NanoBRET as the detection modality. As depicted in Figure 4A, the specificity of interactions was evaluated through decrease in BRET due to competitive displacement of a bound tracer by excess parental compound. Each tracer was analyzed for binding to each HiBiT-GPCR fusion in the absence and in the presence of competing parental compound. Briefly, HEK293 cells were transfected with HiBiT-GPCR constructs diluted into promoterless DNA to reduce expression and maximize translocation to the cell surface. Each tracer candidate was then screened at concentrations of 1 μM and 0.1 μM across cells expressing these fusions. Cells were treated for 1.5 h with tracer either alone or in the presence of 20 μM competing parental compound (i.e., control). BRET was measured upon addition of purified LgBiT and subsequent complementation with HiBiT genetically fused to a GPCR. The specificity of interactions was assessed through a decrease in BRET signal due to competitive displacement of the bound tracer. To further gauge the robustness of these interactions, the fold response over the control (i.e., BRETtracer/BRETcontrol) was calculated. We chose a 1.5-fold response, which translates to ≥7-fold signal over noise as the minimal threshold required to score an interaction as positive. […]. Below we highlight the screening results obtained for our exemplary fluorescent tracers based on Clozapine, Amitriptyline and AZD1283.
# (§2) HiBiT-GPCR DNA constructs were diluted in 10 mM Tris pH 8 to a final concentration of 0.01 μg/μL, arrayed in 96-well plates and stored at −20 °C. For transfection, HEK293 cells were suspended in Opti-MEM (without phenol red) supplemented with 2% fetal bovine serum (Seradigm) and 100 units/mL penicillin–streptomycin (Gibco) at a final concentration of 220,000 cells/mL and dispensed into white 96-well plates at 90 μL/well. Subsequent transfections and screens were carried using an Agilent Bravo Automated Liquid Handling Platform. First, the 96-well HiBiT DNA arrays were diluted 25-fold in Opti-MEM (without serum or phenol red) to a final concentration of 0.0004 μg/μL and 20 μL of the diluted DNAs were transferred into new 96-well plates. Next, promoterless carrier DNA (1 μg/μL) was diluted 25-fold (0.04 μg/μL) and then dispensed into the diluted arrays at 20 μL/well. Following brief mixing, Viafect transfection reagent (Promega) diluted 16-fold into Opti-MEM was dispensed into the plates at 40 μL/well. After mixing by pipetting, plates were incubated for 10 min on the pipetting station deck. The DNA-transfection reagent complexes were then added to plates containing cells. To facilitate the screen, 10 μL of DNA-transfection reagent complexes were added in duplicates to the top 4 and bottom 4 rows, resulting in two identical 48-well arrays per plate. Plates with transfected cells were incubated for 18–20 h at 37 °C/5% CO2. A screen of each tracer across the entire library using two different concentrations requires duplicate plates of transfected cells. Depending on the number of tracers being screened, transfections can be scaled up using the same ratios. The next day, for each tracer, four 20× screening solutions in tracer dilution buffer (Promega) were prepared: two duplicates at final concentration of 20 μM and two duplicates at a final concentration of 2 μM. A competing unmodified compound was added to one of each duplicate at a final concentration of 400 μM. The four resulting solutions were diluted 4-fold in Opti-MEM without serum or phenol red to generate 5× solutions (5 µM and 0.5 µM tracer +/− 100 μM competing compound). To screen the library, a BioTek MultiFlo FX liquid dispenser was used to dispense 22.5 µL of tracer solution to the top 4 rows and 22.5 µL tracer + competing compound solution to the 4 bottom rows. Plates were briefly mixed on an orbital shaker and incubated for 1.5 h at room temperature. […]
# [2] = target: T2, ACKR3 (Homo sapiens, UniProt P25106); assay: NanoBRET screen HiBiT-ACKR3 in HEK293
# T2 construct: purchased Promega (in-house HiBiT-GPCR construct library, NanoBRET)
# Method: as §1, §2
# [3] = target: T3, P2RY2 (Homo sapiens, UniProt P41231); assay: NanoBRET screen HiBiT-P2RY2 in HEK293
# T3 construct: purchased Promega (in-house HiBiT-GPCR construct library, NanoBRET)
# Method: as §1, §2
# [4] = target: T4, P2RY10 (Homo sapiens, UniProt O00398); assay: NanoBRET screen HiBiT-P2RY10 in HEK293
# T4 construct: purchased Promega (in-house HiBiT-GPCR construct library, NanoBRET)
# Method: as §1, §2
# [5] = target: T5, PDGFRB (Homo sapiens, UniProt P09619); assay: NanoBRET screen HiBiT-PDGFRB in HEK293
# T5 construct: purchased Promega (in-house HiBiT-GPCR construct library, NanoBRET)
# Method: as §1, §2
# [6] = target: T6, GALR3 (Homo sapiens, UniProt O60755); assay: NanoBRET screen HiBiT-GALR3 in HEK293
# T6 construct: purchased Promega (in-house HiBiT-GPCR construct library, NanoBRET)
# T6 sequence (O60755 1-368): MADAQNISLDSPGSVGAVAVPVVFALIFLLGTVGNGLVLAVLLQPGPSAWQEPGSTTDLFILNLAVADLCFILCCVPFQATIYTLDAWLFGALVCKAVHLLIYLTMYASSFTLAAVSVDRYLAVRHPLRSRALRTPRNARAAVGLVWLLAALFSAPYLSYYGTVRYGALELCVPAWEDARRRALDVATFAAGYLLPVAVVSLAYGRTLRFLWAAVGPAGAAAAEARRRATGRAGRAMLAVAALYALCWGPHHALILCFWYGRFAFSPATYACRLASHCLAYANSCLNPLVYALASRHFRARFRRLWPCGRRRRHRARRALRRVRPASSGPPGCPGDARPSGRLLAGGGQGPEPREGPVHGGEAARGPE
# Method: as §1, §2
# [7] = target: T7, MC3R (Homo sapiens, UniProt P41968); assay: NanoBRET screen HiBiT-MC3R in HEK293
# T7 construct: purchased Promega (in-house HiBiT-GPCR construct library, NanoBRET)
# Method: as §1, §2
# [8] = target: T8, MC4R (Homo sapiens, UniProt P32245); assay: NanoBRET screen HiBiT-MC4R in HEK293
# T8 construct: purchased Promega (in-house HiBiT-GPCR construct library, NanoBRET)
# Method: as §1, §2
# [9] = target: T9, PTGDR (Homo sapiens, UniProt Q13258); assay: NanoBRET screen HiBiT-PTGDR in HEK293
# T9 construct: purchased Promega (in-house HiBiT-GPCR construct library, NanoBRET)
# T9 sequence (Q13258 1-359): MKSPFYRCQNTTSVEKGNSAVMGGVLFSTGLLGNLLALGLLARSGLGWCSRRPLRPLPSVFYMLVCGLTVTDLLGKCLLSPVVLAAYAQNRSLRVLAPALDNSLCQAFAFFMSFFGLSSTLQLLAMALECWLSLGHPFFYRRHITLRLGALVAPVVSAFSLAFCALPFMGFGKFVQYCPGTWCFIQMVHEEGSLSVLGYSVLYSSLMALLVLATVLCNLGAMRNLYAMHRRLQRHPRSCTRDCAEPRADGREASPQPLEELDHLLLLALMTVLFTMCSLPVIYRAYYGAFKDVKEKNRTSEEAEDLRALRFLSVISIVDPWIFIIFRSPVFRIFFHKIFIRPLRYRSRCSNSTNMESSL
# Method: as §1, §2
# [10] = target: T10, GCGR (Homo sapiens, UniProt P47871); assay: NanoBRET screen HiBiT-GCGR in HEK293; details: GCGR
# T10 construct: purchased Promega (in-house HiBiT-GPCR construct library, NanoBRET)
# Method: as §1, §2
# [11] = tracer at 0.1μM, listed as amitriptyline-b-2-NB590
# [12] = tracer at 1μM, listed as amitriptyline-b-2-NB590
# T10 sequence (P47871 26-477): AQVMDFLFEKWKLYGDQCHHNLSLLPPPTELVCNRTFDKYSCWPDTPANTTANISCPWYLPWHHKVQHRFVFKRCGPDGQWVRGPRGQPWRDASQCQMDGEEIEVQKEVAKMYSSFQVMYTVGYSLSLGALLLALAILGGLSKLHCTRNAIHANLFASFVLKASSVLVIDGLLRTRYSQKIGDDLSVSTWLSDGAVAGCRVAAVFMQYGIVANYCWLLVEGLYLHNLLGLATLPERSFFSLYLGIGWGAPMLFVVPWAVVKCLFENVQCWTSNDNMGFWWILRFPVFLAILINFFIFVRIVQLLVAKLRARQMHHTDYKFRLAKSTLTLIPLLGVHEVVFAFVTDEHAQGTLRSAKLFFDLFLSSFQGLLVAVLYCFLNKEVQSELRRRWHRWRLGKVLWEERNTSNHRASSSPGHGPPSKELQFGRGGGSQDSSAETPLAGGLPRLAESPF
# T1 sequence (P41597 whole entry): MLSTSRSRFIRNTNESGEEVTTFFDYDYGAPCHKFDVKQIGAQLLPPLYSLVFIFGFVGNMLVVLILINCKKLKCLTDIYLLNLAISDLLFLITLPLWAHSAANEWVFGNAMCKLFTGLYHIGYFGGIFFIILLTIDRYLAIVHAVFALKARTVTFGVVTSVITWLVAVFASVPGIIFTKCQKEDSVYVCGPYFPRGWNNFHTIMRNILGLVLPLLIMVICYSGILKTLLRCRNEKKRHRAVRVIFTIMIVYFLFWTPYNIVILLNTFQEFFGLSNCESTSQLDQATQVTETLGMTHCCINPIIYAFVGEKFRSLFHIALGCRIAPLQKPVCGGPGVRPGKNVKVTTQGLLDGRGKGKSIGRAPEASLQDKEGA
# T8 sequence (P32245 whole entry): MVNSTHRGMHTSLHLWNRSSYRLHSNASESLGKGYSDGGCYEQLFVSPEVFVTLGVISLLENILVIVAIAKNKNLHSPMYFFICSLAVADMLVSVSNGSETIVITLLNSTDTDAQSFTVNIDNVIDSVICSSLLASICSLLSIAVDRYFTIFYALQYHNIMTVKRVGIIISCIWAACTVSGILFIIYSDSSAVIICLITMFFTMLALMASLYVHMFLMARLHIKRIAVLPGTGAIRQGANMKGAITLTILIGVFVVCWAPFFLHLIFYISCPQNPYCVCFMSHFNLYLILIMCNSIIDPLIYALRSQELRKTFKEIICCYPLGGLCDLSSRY
# T2 sequence (P25106 whole entry): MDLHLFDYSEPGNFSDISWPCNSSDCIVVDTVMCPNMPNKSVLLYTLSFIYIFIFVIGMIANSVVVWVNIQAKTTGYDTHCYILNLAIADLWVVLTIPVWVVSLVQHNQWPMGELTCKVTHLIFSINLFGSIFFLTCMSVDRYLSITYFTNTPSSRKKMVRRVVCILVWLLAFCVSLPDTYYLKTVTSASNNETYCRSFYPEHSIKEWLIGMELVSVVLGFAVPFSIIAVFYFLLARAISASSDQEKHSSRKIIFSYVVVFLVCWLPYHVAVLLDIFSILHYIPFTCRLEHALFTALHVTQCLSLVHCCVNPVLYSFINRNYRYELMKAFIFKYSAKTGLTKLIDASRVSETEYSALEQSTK
# T4 sequence (O00398 whole entry, one chain of several): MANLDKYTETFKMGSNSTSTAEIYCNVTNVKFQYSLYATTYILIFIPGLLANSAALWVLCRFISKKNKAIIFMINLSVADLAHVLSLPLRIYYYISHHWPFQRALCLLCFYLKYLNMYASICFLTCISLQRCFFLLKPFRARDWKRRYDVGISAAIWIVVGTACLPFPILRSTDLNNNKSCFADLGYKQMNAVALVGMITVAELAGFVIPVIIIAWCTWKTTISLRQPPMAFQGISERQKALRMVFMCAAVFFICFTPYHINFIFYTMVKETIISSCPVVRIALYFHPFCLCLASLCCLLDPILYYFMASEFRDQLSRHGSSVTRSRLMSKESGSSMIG
# T7 sequence (P41968 whole entry): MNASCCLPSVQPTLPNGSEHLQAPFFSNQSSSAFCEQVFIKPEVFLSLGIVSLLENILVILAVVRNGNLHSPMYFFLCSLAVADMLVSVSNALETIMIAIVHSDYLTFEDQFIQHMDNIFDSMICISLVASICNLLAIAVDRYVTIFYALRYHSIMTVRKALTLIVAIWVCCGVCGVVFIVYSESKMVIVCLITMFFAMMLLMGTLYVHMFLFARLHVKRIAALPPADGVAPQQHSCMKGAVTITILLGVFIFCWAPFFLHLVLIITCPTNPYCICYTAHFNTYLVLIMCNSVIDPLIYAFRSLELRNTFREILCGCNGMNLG
# T5 sequence (P09619 33-1106): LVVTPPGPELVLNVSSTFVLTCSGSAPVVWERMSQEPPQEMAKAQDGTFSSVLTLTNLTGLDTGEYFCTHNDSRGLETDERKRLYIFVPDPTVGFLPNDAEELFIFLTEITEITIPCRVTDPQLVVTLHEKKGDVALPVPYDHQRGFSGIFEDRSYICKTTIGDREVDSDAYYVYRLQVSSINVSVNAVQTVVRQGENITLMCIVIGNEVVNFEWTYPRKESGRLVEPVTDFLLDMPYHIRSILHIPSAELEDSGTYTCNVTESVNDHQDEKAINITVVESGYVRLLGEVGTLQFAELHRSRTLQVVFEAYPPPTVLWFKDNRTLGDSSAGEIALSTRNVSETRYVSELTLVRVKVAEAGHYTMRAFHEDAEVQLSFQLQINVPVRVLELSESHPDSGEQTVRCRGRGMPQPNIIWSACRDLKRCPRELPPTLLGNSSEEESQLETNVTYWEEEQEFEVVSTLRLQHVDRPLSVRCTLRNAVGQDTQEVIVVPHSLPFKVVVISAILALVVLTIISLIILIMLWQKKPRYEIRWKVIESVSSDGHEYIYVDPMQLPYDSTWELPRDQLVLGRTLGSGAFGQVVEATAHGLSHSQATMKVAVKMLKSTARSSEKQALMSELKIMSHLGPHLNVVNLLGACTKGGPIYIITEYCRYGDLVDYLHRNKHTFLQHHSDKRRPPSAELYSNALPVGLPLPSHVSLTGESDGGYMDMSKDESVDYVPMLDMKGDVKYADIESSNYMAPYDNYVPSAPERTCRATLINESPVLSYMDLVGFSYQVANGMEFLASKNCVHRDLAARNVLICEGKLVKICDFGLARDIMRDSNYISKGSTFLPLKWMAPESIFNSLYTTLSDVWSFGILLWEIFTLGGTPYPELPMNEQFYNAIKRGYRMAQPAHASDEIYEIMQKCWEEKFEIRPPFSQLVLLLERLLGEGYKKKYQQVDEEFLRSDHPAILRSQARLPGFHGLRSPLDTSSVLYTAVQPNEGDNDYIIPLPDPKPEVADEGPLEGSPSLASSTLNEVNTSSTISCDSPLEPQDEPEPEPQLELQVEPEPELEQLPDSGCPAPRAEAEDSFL
# T3 sequence (P41231 whole entry): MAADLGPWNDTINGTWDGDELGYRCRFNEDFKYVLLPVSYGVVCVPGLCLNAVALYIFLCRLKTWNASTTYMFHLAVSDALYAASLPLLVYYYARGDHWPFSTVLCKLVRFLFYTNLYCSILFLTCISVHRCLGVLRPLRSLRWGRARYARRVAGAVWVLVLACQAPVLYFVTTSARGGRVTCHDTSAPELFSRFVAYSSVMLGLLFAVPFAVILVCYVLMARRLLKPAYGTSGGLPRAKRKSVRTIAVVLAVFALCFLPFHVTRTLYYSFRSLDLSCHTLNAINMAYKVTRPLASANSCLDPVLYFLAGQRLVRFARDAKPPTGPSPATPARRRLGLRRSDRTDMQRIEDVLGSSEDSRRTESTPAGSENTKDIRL
compound,measurement,setting,value
CN(C)CCC=C1c2ccccc2CCc2ccc(C(=O)NCCNC(=O)CCOCCOCCOCCOCCNC(=O)CCc3ccc4n3[B-](F)(F)[N+]3=C(c5ccc[nH]5)C=CC3=C4)cc21 [Amitriptyline-b-2-NB590],NanoBRET Fold Response,[1]; tracer at 0.1μM,0.99
same,NanoBRET Fold Response,[1]; tracer at 1μM,0.89
same,NanoBRET Fold Response,[2]; [11],1.17
same,NanoBRET Fold Response,[2]; [12],1.07
same,NanoBRET Fold Response,[3]; [11],1.04
same,NanoBRET Fold Response,[3]; [12],0.92
same,NanoBRET Fold Response,[4]; [11],1.14
same,NanoBRET Fold Response,[4]; [12],1.38
same,NanoBRET Fold Response,[5]; tracer at 0.1μM,0.97
same,NanoBRET Fold Response,[5]; [12],0.99
same,NanoBRET Fold Response,[6]; [11],1.46
same,NanoBRET Fold Response,[6]; [12],0.95
same,NanoBRET Fold Response,[7]; tracer at 0.1μM,0.98
same,NanoBRET Fold Response,[7]; tracer at 1μM,0.98
same,NanoBRET Fold Response,[8]; tracer at 0.1μM,1.00
same,NanoBRET Fold Response,[8]; tracer at 1μM,1.02
same,NanoBRET Fold Response,[9]; tracer at 1μM,1.03
same,NanoBRET Fold Response,[10]; tracer 0.1μM,0.91
same,NanoBRET Fold Response,[10]; tracer 1μM,1.03
CN(CCC=C1c2ccccc2CCc2ccccc21)C(=O)CCOCCOCCOCCOCCNC(=O)CCc1ccc2n1[B-](F)(F)[N+]1=C(c3ccc[nH]3)C=CC1=C2 [Amitriptyline-e-2-NB590],NanoBRET Fold Response,[1]; tracer at 1μM,0.90
same,NanoBRET Fold Response,[2]; tracer at 1μM,0.94
same,NanoBRET Fold Response,[3]; tracer at 1μM,0.98
same,NanoBRET Fold Response,[4]; tracer at 1μM,0.99
same,NanoBRET Fold Response,[5]; tracer at 1μM,1.04
COc1ccccc1N1CCN(CCCCN2C(=O)c3ccc(CNC(=O)CCOCCOCCOCCOCCNC(=O)CCc4ccc5n4[B-](F)(F)[N+]4=C(c6ccc[nH]6)C=CC4=C5)cc3C2=O)CC1 [NAN-190-2-NB590],NanoBRET Fold Response,"[1]; CCR2, tracer 0.1μM",1.04
same,NanoBRET Fold Response,"[1]; CCR2, tracer 1μM",1.00
same,NanoBRET Fold Response,"[2]; ACKR3, tracer 0.1μM",1.09
same,NanoBRET Fold Response,"[4]; P2RY10, tracer 1μM",0.95
same,NanoBRET Fold Response,"[5]; PDGFRB, tracer 0.1μM",0.99
same,NanoBRET Fold Response,"[5]; PDGFRB, tracer 1μM",1.00
same,NanoBRET Fold Response,"[6]; GALR3, tracer 0.1μM",0.97
same,NanoBRET Fold Response,"[6]; GALR3, tracer 1μM",1.10
same,NanoBRET Fold Response,"[7]; MC3R, tracer 0.1μM",1.03
same,NanoBRET Fold Response,"[7]; MC3R, tracer 1μM",1.00
same,NanoBRET Fold Response,"[8]; MC4R, tracer 0.1μM",0.97
same,NanoBRET Fold Response,"[8]; MC4R, tracer 1μM",1.01
same,NanoBRET Fold Response,"[9]; PTGDR, tracer 0.1μM",0.97
same,NanoBRET Fold Response,"[9]; PTGDR, tracer 1μM",1.01
same,NanoBRET Fold Response,[10]; tracer 0.1μM,1.06
same,NanoBRET Fold Response,[10]; tracer 1μM,1.06

# — paper PMC8151276, “An Integrated Approach toward NanoBRET Tracers for Analysis of GPCR Ligand Engagement” (Molecules, 2021)
